Values quoted from earlier work, collected in patent publication US5122608A, “Method for the preparation of substituted and unsubstituted 2,3-pyridine and quinolinedicarboxylic acids” (priority 1990, dated 1992).

Details: ionization constant; representative mineral and organic acids

SMILES	pKa
CCc1ccc(S(=O)(=O)O)cc1 [p-Ethylbenzene sulfonic]	0.9
O=C(O)C(Cl)(Cl)Cl [Trichloroacetic]	0.5
